Results published in patent US8598147B2, “Synergistic antimicrobial composition” (Dow Global Technologies LLC, priority 2009, dated 2013).

Assays:
oilfield SRB consortium = assay: Biocidal efficacy against anaerobic bacteria for a high temperature and sulfide-rich environment (dosage for 99.999% bacterial reduction); type: cell-based, sulfate reducing bacteria (SRB); conditions: 80° C., 7 days, daily challenge of SRB consortium and 10 ppm sulfide ion
Protocol: Inside an anaerobic chamber (BACTRON IV), biocides solutions were challenged with 10^4 to 10^5CFU/mL of an oilfield SRB consortium and 10 ppm sulfide ion (added in the form of sodium sulfide). The biocide solutions were then incubated at 80° C. under anaerobic condition for 7 days, with daily challenge of the SRB consortium (10^4 to 10^5CFU/mL) and sulfide ion (10 ppm). Then the biocidal efficacy was evaluated against the field SRB consortium at 2 hours and 7 days. The biocidal efficacy was determined by the biocide dosage required for 99.999% bacterial reduction. Synergy Index was then calculated. Table 2 summarizes the efficacy of each biocide and their blends, and the Synergy Index of each combination.

[1] = system: oil field isolated anaerobic consortium, mainly SRB; assay: Biocidal efficacy (MBC, complete bacteria kill) of THPS, CTAC and THPS/CTAC combination against sulfate reducing bacteria; type: cell-based, sulfate reducing bacteria (SRB)
Protocol: Inside an anaerobic chamber (BACTRON anaerobic chamber), a deaerated sterile salt solution (3.1183 g of NaCl, 1.3082 mg of NaHCO3, 47.70 mg of KCl, 72.00 mg of CaCl2, 54.49 mg of MgSO4, 172.28 mg of Na2SO4, 43.92 mg of Na2CO3 in 1 L water) was contaminated with an oil field isolated anaerobic consortium, mainly SRB, at final bacterial concentrations of 10^6 to 10^7 CFU/mL.

| Compound | Concentration (active ppm) required for 99.999% bacterial reduction CTAC (oilfield SRB consortium; CTAC concentration (alone or within the blend)) [active ppm] | MBC (active ppm) CTAC ([1]; CTAC concentration (alone or within the blend) for complete bacteria kill, 40° C., 24 hour, anaerobic, 10^6 to 10^7 CFU/mL) [active ppm] | Concentration (active ppm) required for 99.999% bacterial reduction THPS (oilfield SRB consortium; THPS concentration (alone or within the blend)) [active ppm] | MBC (active ppm) THPS [1] [active ppm] |
| --- | --- | --- | --- | --- |
| Cl/C=C\C[N+]12CN3CN(CN(C3)C1)C2.[Cl-] [CTAC, cis-1-(3-chloroallyl)-3,5,7-triaza-1-azoniaadamantane chloride] | 180 | 31.1 |  |  |
| tetrakis(hydroxymethyl)phosphonium sulfate [THPS] |  |  | 45.0 | 4.1 |
